For data set [1], the target named is T1, OATP1B1 (Homo sapiens, UniProt Q9Y6L6).
T1 construct: expressed in transfected cells; host or cells: A431 epidermoid carcinoma cells
T1 sequence (Q9Y6L6 1-691): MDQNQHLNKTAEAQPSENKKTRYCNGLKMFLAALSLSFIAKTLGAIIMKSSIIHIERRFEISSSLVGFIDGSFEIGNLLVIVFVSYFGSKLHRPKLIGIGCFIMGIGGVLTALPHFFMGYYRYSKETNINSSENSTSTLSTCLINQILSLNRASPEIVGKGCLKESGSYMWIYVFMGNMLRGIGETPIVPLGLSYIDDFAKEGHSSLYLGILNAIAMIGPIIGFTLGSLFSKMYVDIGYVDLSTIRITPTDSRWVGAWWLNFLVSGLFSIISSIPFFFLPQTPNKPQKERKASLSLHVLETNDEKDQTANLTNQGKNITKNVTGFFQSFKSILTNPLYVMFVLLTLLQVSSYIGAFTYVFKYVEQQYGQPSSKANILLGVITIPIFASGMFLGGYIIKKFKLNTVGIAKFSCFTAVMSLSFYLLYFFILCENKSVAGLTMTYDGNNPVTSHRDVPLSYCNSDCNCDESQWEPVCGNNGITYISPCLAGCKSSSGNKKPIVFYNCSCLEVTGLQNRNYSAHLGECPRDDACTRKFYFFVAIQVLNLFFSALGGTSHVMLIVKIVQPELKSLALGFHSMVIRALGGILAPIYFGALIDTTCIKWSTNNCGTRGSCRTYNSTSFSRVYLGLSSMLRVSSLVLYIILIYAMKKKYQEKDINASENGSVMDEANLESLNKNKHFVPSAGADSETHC
Nature of the data set: OATP uptake assay, OATP1B1. The following applies: human, 10 μM. Type of data set: cell-based. Here is the method:
Cell lines: A431 cells overexpressing OATP1B1 or OATP2B1, and their mock transfected controls were generated and characterized previously. The cell lines were cultured in DMEM (Gibco, Thermofisher Scientific, Waltham, MA, USA), supplemented with 10% fetal bovine serum, 2 mM L-glutamine, 100 μg/mL streptomycin, and 100 units/mL penicillin at 37 °C and 5% CO2.
OATP uptake assay: Prior to the experiment, A431 cells (8 × 10^4/well) were seeded on 96-well plates in 200 μL cell culture medium. After 16–24 h, the cells were washed with 200 μL PBS, three times and pre-incubated with 20–200 μM HQNO2-L-Pro, or buffer without HQNO2-L-Pro for 5 min at 37 °C in 50 μL HBSS (Hank’s Balanced Salt Solution, pH 7.4; OATP1B1) or uptake buffer (pH 5.5; OATP2B1 [63]). The reaction was started by the addition of disulfopyrene (6,8-dihydroxy-1,3-pyrenedisulfonic acid disodium salt, Sigma, Darmstadt, Germany) at a final concentration of 10 μM (OATP1B1) or pyranine (8-hydroxypyrene-1,3-pyrenetrisulfonic acid trisodium salt, Sigma, Darmstadt, Germany) at a final concentration of 20 μM (OATP2B1), and the cells were further incubated at 37 °C for 10 min (OATP1B1) or 15 min (OATP2B1). The reaction was stopped by removing the supernatant after which the cells were washed three times with ice-cold PBS. Fluorescence (in 200 μL PBS) was determined using an Enspire plate reader (PerkinElmer, Waltham, MA, USA) with excitation/emission wavelengths of 460/510 nm. OATP-dependent transport was calculated by subtracting fluorescence measured in mock transfected cells. Transport activity was calculated based on the fluorescence signal in the absence (100%) of HQNO2-L-Pro. Experiments were repeated in at least three biological replicates.

The conditions of data set [2]: at 1 μM concentration; pH 7.4. Here is the method:
Thus, a ligand displacement study was performed spectrophotometrically using 2,2’-bipyridine as the competitor (Figure S21) to determine the stability constant for the RhCp* complex at pH 7.4.
SUPPLEMENTARY INFORMATION
Figure S 20. UV-vis spectr a recorded for the (a) RhCp* − HQNO2-L-Pro (1:1) and (b) RuCym −
HQNO2-L-Pro (1:1) systems at different times at pH 1. Absorbance values plotted against the time
measured in the (c) RhCp* − HQNO2-L-Pro (1:1) at 435 nm, and (d) RuCym − HQNO2-L-Pro (1:1) at
410 nm at pH 1 and 4 (indicated in the figure). { cligand = 50 μM; cRhCp* or RuCym = 50 μM; l = 1 cm; t =
Figure S 21. (a) UV -vis spectra of the R hCp*-HQNO2-L-Pro complex at various equivalents of 2,2’ -
bipyridine at pH 7.4 after 24 h waiting time and (b) the measured absorbance values at 4 35 nm plotted
against the 2,2’-bipyridine:complex ratio.
complex taken from Ref. [74]. {ccomplex = 50 μM; PBS’ buffer; l = 1 cm; t = 25.0 °C}
c (2,2'-bipyridine) / c (complex) […]

What is called inhibition is the change of the read-out against control, counted positive when it falls. On to `O=C(O)[C@@H]1CCCN1Cc1cc([N+](=O)[O-])c2cccnc2c1O` [HQNO2-L-Pro, (2S)-1-((8-hydroxy-5-nitroquinolin-7-yl)methyl)pyrrolidin-1-ium-2-carboxylate], for which the activity at 10 min, 100 µM in data set [1] (A431 cells overexpressing OATP1B1, pH 7.4, probe disulfopyrene, 100 μM, absence of compound = 100%, n = 3, ± SD, read-out: transport activity % OATP1B1) worked out at 88.1 ± 5.9%. In addition, the activity at 10 min, 10 µM in data set [1] (A431 cells overexpressing OATP1B1, pH 7.4, probe disulfopyrene, absence of compound = 100%, n = 3, ± SD, read-out: transport activity % OATP1B1) amounted to 106 ± 4.1%. For the same compound, the inhibition at 10 min, 100 µM in data set [1] (probe disulfopyrene, at 100 μM, A431 cells overexpressing OATP1B1, pH 7.4, read-out: inhibition of OATP1B1 function) was less than 20%.

On to `CC1=C(C)[C](C)([Rh]([Cl])[O]c2c(C[NH+]3CCC[C@H]3C(=O)O)cc([N+](=O)[O-])c3cccnc23)C(C)=C1C.[Cl-]` [RhCp*-HQNO2-L-Pro, [RhCp*(HQNO2-L-Pro)Cl]Cl], for which the “dissociation of the complex expected” value in data set [2] is on record as less than 1%.

For the origin of these results see PMC9820345, “Metal Complexes of a 5-Nitro-8-Hydroxyquinoline-Proline Hybrid with Enhanced Water Solubility Targeting Multidrug Resistant Cancer Cells” (International Journal of Molecular Sciences, 2022).
